Values joined by “and” are separate entries in the source; they are usually repeats but may differ in a detail not shown here. Equal entries are not always repeated. Inconclusive results and toxic doses are left out. Rule for the calls: active = survival T/C of 150% or more; inactive = T/C below 125% in these data.
System: CD2F1 mice, L1210 leukemia ip, survival T/C
Assay: NCI In Vivo Anticancer Drug Screen. Data for tumor model L1210 Leukemia (intraperitoneal) in CD2F1 (CDF1) mice
Settings: endpoint: mean survival time, higher = longer survival
Method in brief: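 Ratio T/C, where T is the treated-group value and C the vehicle-dosed control value, from mice implanted with a transplantable tumor.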

[1] = dose: 100.0 mg/kg/injection, schedule: Q01DX009 (ip), vehicle: saline with Tween-80
[2] = dose: 200.0 mg/kg/injection, schedule: Q01DX009 (ip), vehicle: saline with Tween-80
[3] = dose: 25.0 mg/kg/injection, schedule: Q04DX002 (ip), vehicle: saline with Tween-80
[4] = dose: 50.0 mg/kg/injection, schedule: Q04DX002 (ip), vehicle: saline with Tween-80
[5] = dose: 100.0 mg/kg/injection, schedule: Q01DX009 (ip), vehicle: saline
[6] = dose: 100.0 mg/kg/injection, schedule: Q04DX003 (ip), vehicle: saline
[7] = dose: 200.0 mg/kg/injection, schedule: Q01DX009 (ip), vehicle: saline
[8] = dose: 200.0 mg/kg/injection, schedule: Q04DX003 (ip), vehicle: saline
[9] = dose: 400.0 mg/kg/injection, schedule: Q01DX009 (ip), vehicle: saline
[10] = dose: 400.0 mg/kg/injection, schedule: Q04DX003 (ip), vehicle: saline
[11] = dose: 12.5 mg/kg/injection, schedule: Q01DX005 (ip), vehicle: water
[12] = dose: 25.0 mg/kg/injection, schedule: Q01DX005 (ip), vehicle: water
[13] = dose: 50.0 mg/kg/injection, schedule: Q01DX005 (ip), vehicle: water
[14] = dose: 100.0 mg/kg/injection, schedule: Q01DX005 (ip), vehicle: water
[15] = dose: 200.0 mg/kg/injection, schedule: Q01DX005 (ip), vehicle: water

Measured: T/C

O=C(c1ccccc1)c1ccc(-c2ccccc2)c(=O)o1
inactive: [1] 95 % of control | dose: 100.0 mg/kg/injection, schedule: Q04DX003 (ip), vehicle: saline with Tween-80 100 % of control | [2] 95 % of control | dose: 200.0 mg/kg/injection, schedule: Q04DX003 (ip), vehicle: saline with Tween-80 98 % of control | dose: 400.0 mg/kg/injection, schedule: Q01DX009 (ip), vehicle: saline with Tween-80 92 % of control | dose: 400.0 mg/kg/injection, schedule: Q04DX003 (ip), vehicle: saline with Tween-80 102 % of control

C/C=C\C[P+](c1ccccc1)(c1ccccc1)c1ccccc1
inactive: dose: 5.0 mg/kg/injection, schedule: Q01DX001 (ip), vehicle: saline with Tween-80 101 % of control | dose: 5.0 mg/kg/injection, schedule: Q01DX009 (ip), vehicle: saline with Tween-80 102 % of control | dose: 10.0 mg/kg/injection, schedule: Q01DX001 (ip), vehicle: saline with Tween-80 104 % of control | dose: 10.0 mg/kg/injection, schedule: Q01DX009 (ip), vehicle: saline with Tween-80 102 % of control | dose: 20.0 mg/kg/injection, schedule: Q01DX001 (ip), vehicle: saline with Tween-80 104 % of control | dose: 20.0 mg/kg/injection, schedule: Q01DX009 (ip), vehicle: saline with Tween-80 122 % of control

CCOC(=O)/C(Cc1cc(Cl)nnc1Cl)=N\N
inactive: dose: 12.5 mg/kg/injection, schedule: Q04DX002 (ip), vehicle: saline with Tween-80 113 % of control | [3] 98 % of control | [4] 87 % of control

N#C[Se]CC[Se]C#N
inactive: dose: 6.25 mg/kg/injection, schedule: Q01DX001 (ip), vehicle: saline with Tween-80 94 % of control | dose: 12.5 mg/kg/injection, schedule: Q01DX001 (ip), vehicle: saline with Tween-80 98 % of control | dose: 25.0 mg/kg/injection, schedule: Q01DX001 (ip), vehicle: saline with Tween-80 103 % of control

O=C(Nc1ccccc1F)c1ccccc1Cl
inactive: [5] 98 % of control | [6] 106 % of control | [7] 92 % of control | [8] 104 % of control | [9] 98 % of control | [10] 97 % of control

CN1CCN(c2ncnc3c2ncn3C2OC(CO)C(O)C2O)CC1 (configuration not stated)
inactive: [11] 106 % of control | [12] 106 % of control | [13] 112 % of control | [14] 106 % of control | [15] 102 % of control

C=C(C)CCCC(C)C(O)C=O (configuration not stated)
inactive: dose: 100.0 mg/kg/injection, schedule: Q01DX001 (ip), vehicle: saline 98 % of control | dose: 200.0 mg/kg/injection, schedule: Q01DX001 (ip), vehicle: saline 95 % of control | dose: 400.0 mg/kg/injection, schedule: Q01DX001 (ip), vehicle: saline 95 % of control

CCCCCCCCN(C=O)CCCCCCCC
inactive: [3] 93 % of control | [4] 96 % of control | dose: 100.0 mg/kg/injection, schedule: Q04DX002 (ip), vehicle: saline with Tween-80 104 % of control

CN(C)C(CCN1CCCCC1)CN1CCCCC1 (configuration not stated)
inactive: [5] 101 % of control | [6] 101 % of control | [7] 98 % of control | [8] 101 % of control | [9] 102 % of control | [10] 98 % of control

O=c1[nH][nH]c(=O)c2c1ncn2C1OC(CO)C(O)C1O (configuration not stated)
inactive: [11] 101 % of control | [12] 100 % of control | [13] 101 % of control | [14] 101 % of control | [15] 100 % of control

CC(=O)NC(CC(=O)O)C(=O)NNC(=O)c1ccccc1O (configuration not stated)
inactive: dose: 25.0 mg/kg/injection, schedule: Q01DX009 (ip), vehicle: Klucel (hydroxypropylcellulose) (HPC) 108 % of control | dose: 50.0 mg/kg/injection, schedule: Q01DX009 (ip), vehicle: Klucel (hydroxypropylcellulose) (HPC) 115 % of control | dose: 100.0 mg/kg/injection, schedule: Q01DX009 (ip), vehicle: Klucel (hydroxypropylcellulose) (HPC) 104 % of control

O=C(O)C(Br)CCC(Br)C(=O)O (configuration not stated)
inactive: dose: 100.0 mg/kg/injection, schedule: Q01DX001 (ip), vehicle: other 102 % of control | dose: 200.0 mg/kg/injection, schedule: Q01DX001 (ip), vehicle: other 102 % of control | dose: 400.0 mg/kg/injection, schedule: Q01DX001 (ip), vehicle: other 97 % of control

Cc1csc(NC(=O)Nc2ccc(F)cc2[N+](=O)[O-])n1
inactive: dose: 12.5 mg/kg/injection, schedule: Q01DX009 (ip), vehicle: saline 103 % of control | dose: 25.0 mg/kg/injection, schedule: Q01DX009 (ip), vehicle: saline 112 % of control | dose: 50.0 mg/kg/injection, schedule: Q01DX009 (ip), vehicle: saline 103 % of control

Nc1nc(N)c2c(n1)NCN(Cc1ccc(Cl)c(Cl)c1)C2
inactive: dose: 0.75 mg/kg/injection, schedule: Q01DX009 (ip), vehicle: water 102 % of control | dose: 1.5 mg/kg/injection, schedule: Q01DX009 (ip), vehicle: water 98 % of control | dose: 3.0 mg/kg/injection, schedule: Q01DX009 (ip), vehicle: water 102 % of control | dose: 6.0 mg/kg/injection, schedule: Q01DX009 (ip), vehicle: water 102 % of control | dose: 12.0 mg/kg/injection, schedule: Q01DX009 (ip), vehicle: water 100 % of control | dose: 24.0 mg/kg/injection, schedule: Q01DX009 (ip), vehicle: water 102 % of control | dose: 50.0 mg/kg/injection, schedule: Q01DX009 (ip), vehicle: water 94 % of control

CCCCCCCCCCCCCC(CCCCCCCC)CCCCCCCC
inactive: dose: 100.0 mg/kg/injection, schedule: Q01DX001 (ip), vehicle: saline sonified 111 % of control | dose: 200.0 mg/kg/injection, schedule: Q01DX001 (ip), vehicle: saline sonified 104 % of control | dose: 400.0 mg/kg/injection, schedule: Q01DX001 (ip), vehicle: saline sonified 101 % of control

COc1ccccc1C1C=CCCCC1 (configuration not stated)
inactive: [6] 95 % of control | [8] 93 % of control | [10] 96 % of control

NC(=O)/C=C/C(=O)c1c(Cl)cccc1Cl
inactive: dose: 0.78 mg/kg/injection, schedule: Q01DX009 (ip), vehicle: saline with Tween-80 98 % of control | dose: 0.79 mg/kg/injection, schedule: Q01DX009 (ip), vehicle: saline with Tween-80 97 % of control | dose: 1.56 mg/kg/injection, schedule: Q01DX009 (ip), vehicle: saline with Tween-80 95 % of control and 97 % of control | dose: 3.12 mg/kg/injection, schedule: Q01DX009 (ip), vehicle: saline with Tween-80 91 % of control and 104 % of control | dose: 6.25 mg/kg/injection, schedule: Q01DX009 (ip), vehicle: saline with Tween-80 97 % of control and 101 % of control | dose: 12.5 mg/kg/injection, schedule: Q01DX009 (ip), vehicle: saline with Tween-80 98 % of control and 100 % of control

Cc1ccc(NC(=O)OCCOc2ccc(-c3ccccc3)cc2)cc1[N+](=O)[O-]
inactive: dose: 50.0 mg/kg/injection, schedule: Q01DX009 (ip), vehicle: saline with Tween-80 98 % of control | [1] 98 % of control | [2] 94 % of control

From PubChem BioAssay AID256 (DTP/NCI, 2004)
